Reference: patent publication US20160113958A1, “MODULATORS OF ADP-DEPENDENT GLUCOKINASE (ADPGK) AND GLYCEROL-3-PHOSPHATE DEHYDROGENASE (GPD2) FOR THERAPY” (DEUTSCHES KREBSFORSCHUNGSZENTRUM STIFTUNG DES ÖFFENTLICHEN …, priority 2011, published 2016)
Where two headings read alike, the source gives them in different places.

Legend:
[1] = tested on: in vitro expanded peripheral human T cells; assay: Determination of ROS generation (activation-induced oxidative signal, H2DCF-DA, FACS); type: cell-based; conditions: for oxidative signal generation (T cell activation-induced mitochondrial ROS) with respiratory chain inhibitors: 15 min pre-treatment, plate-bound anti-CD3 (30 μg/ml) or PMA (10 ng/ml) 1 h (FIG. 9A)
Protocol: (§1) T cell line Jurkat J16-145 cells, J16 sub-clone (2), were cultured in RPMI 1640 (+L-glutamine), 10% foetal calf serum (FCS). Gaussia luciferase NF-κB reporter J16-145 cells were cultured in IMDM, 10% FCS. Freshly isolated (“resting”) or phytohemagglutinin (PHA)-activated and 6-8 days in vitro expanded (“pre-activated”) peripheral human T cells were cultured at initial concentration of 2×10^6 cells/ml in RPMI 1640 (+L-glutamine), 10% FCS. For pre-activation-induced expansion, “resting” T cells were treated with 1 μg/ml PHA for 16 h, washed and subsequently cultured in the presence of 25 U/ml IL-2 for 6-8 days. These cells are referred to as “T cells” in the text, if not stated differently.
Cells were stained with H2DCF-DA (5 μM) for 30 min. Next, cells were divided and 1 h stimulated with either plate-bound anti-CD3 antibody (30 μg/ml) or PMA (10 ng/ml). Treatment was terminated by ice-cold PBS and ROS generation was determined by FACS analysis (Canto II, Becton Dickinson). ROS generation was quantified as the increase in mean fluorescence intensity (MFI), calculated according to the following formula: increase in MFI (%)=[(MFIstimulated−MFIunstimulated)/MFIunstimulated]×100 (3).

[2] = molecular target: T1, ADPGK (Homo sapiens, UniProt Q9BRR6); assay: ADP-dependent glucokinase (ADPGK) activity assay; type: biochemical; conditions: for ADPGK activity in mitochondria-enriched membrane fractions ("high g" fractions): human T cells or Jurkat T cells, 1 h stimulation
T1 construct: endogenous in cells; host or cells: in vitro expanded human T cells or Jurkat T cells; "high g" mitochondrial or "ER-enriched" fraction
T1 sequence (Q9BRR6 23-497): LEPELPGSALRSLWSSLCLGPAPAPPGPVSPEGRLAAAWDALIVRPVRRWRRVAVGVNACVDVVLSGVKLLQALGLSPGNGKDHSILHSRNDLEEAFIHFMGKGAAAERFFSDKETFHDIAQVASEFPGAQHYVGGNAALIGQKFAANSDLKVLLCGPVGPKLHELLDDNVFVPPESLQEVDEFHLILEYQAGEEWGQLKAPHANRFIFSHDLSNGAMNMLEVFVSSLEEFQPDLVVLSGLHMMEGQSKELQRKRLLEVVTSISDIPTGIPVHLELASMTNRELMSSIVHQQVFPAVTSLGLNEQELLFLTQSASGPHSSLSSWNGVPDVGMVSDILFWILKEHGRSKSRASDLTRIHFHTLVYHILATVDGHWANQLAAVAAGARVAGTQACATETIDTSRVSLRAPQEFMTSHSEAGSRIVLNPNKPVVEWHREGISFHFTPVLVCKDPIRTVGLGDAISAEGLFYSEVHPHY
Protocol: (§2) Cells were disrupted using a 27×½″ needle in ice-cold ETC buffer and the homogenates were centrifuged at 600×g, 4° C. for 10 min. For preparation of the “high g” mitochondrial (pellet) as well cytosolic (supernatant) fraction the 600×g supernatant was centrifuged at 11.000×g, 4° C. for 20 min. For preparation of the “mitochondria-enriched” fractions, the 600×g supernatant was centrifuged 10 min, 4° C. at 3,500×g (pellet). Subsequently, for preparation of the “ER-enriched fraction” the 3,500×g supernatant was centrifuged at 11.000×g, 4° C. for 20 min. The mouse heart muscle mitochondria were prepared according to the procedure for “mitochondria-enriched” fraction as described (5).
ADPGK activity was assayed as NADP reduction in ETC buffer containing 1 mM ADP, 1 mM glucose, 0.5 mM NADP, 5 μM diadenosine pentaphosphate, and 0.05 U/ml glucose 6-phosphate dehydrogenase at pH 6.0 and 37° C. or 42° C. Assay was essentially based on the one previously described for the recombinant mouse ADPGK protein (9).

[3] = tested on: GPD2; assay: GPD2 activity in mitochondrial fractions of T cells; type: biochemical, human
Protocol: as §2
Glycerol-3-phosphate-dehydrogenase (GPD2) activity was measured as cytochrome c reduction in ETC buffer containing 5 mM glycerol 3-phosphate, 2 mM NaCN, and 60 μM cytochrome c.

[4] = tested on: ETC complexes I, II and III; assay: Steady-state activity of ETC enzymatic complexes in digitonin-permeabilized T cells; type: biochemical, human; conditions: T cells pre-treated (20 min) with BIM, TCR triggering
Protocol: In vitro expanded T cells (at least 0.5×10^8) were snap-frozen in liquid nitrogen and subsequently incubated on ice in ETC buffer (20 mM Tris-HCl pH 7.4, 250 mM sucrose, 50 mM KCl, 5 mM MgCl2) with 0.015% digitonin for 30 min according to Chretien et al. (4) with minor modifications. Afterwards, cells were washed twice with ice-cold ETC buffer and subjected to assays.
Steady-state activity of ETC enzymatic complexes was determined as described (5, 6) using a computer-tunable spectrophotometer (Spectramax Plus Microplate Reader, Molecular Devices; Sunny Vale, Calif., USA) operating in the dual wavelength mode; samples were analyzed in temperature-controlled 96-well plates in a final volume of 300 μL. The addition of standard respiratory chain inhibitors was used to ascertain the specificity of the enzymatic assays. All enzymatic activities were normalized to protein concentration. For stimulated T cells ETC enzyme activities were measured after snap-freezing and digitonin-permeabilization (as described previously). To study electron flow from complex I or complex II to complex III digitonin-permeabilized cells or mitochondrial fractions were incubated with NADH or succinate and the reduction of cytochrome c in the presence of NaCN was measured.

[5] = tested on: mitochondria-associated HK activity; assay: Respiration-coupled hexokinase (HK)-like activity in T cell mitochondria ("high g" fraction); type: biochemical, human
[6] = tested on: Jurkat T cells; assay: Determination of ROS generation (activation-induced oxidative signal, H2DCF-DA, FACS); type: cell-based, human; conditions: 30 min pre-incubation with DOG/pyruvate, compared to equimolar glucose (Glc)/pyruvate
Protocol: as §1
Cells were stained with H2DCF-DA (5 μM) for 30 min. Next, cells were divided and 1 h stimulated with either plate-bound anti-CD3 antibody (30 μg/ml) or PMA (10 ng/ml). Treatment was terminated by ice-cold PBS and ROS generation was determined by FACS analysis (Canto II, Becton Dickinson). ROS generation was quantified as the increase in mean fluorescence intensity (MFI), calculated according to the following formula: increase in MFI (%)=[(MFIstimulated−MFIunstimulated)/MFIunstimulated]×100 (3). […]

[7] = tested on: enolase (ENO); assay: Enolase (ENO) reverse reaction activity; type: biochemical, human
Protocol: Enolase (ENO) forward reaction was measured as NADH oxidation in ETC buffer containing 1 mM 2-phosphoglycerate, 1 mM ADP, 0.5 mM NADH, 2 U/ml LDH, 2 U/ml PK. The reverse reaction was assayed in ETC buffer containing 1 mM phosphoenolpyruvate, 1 mM ATP, 0.5 mM NADH, 2 U/ml LDH, 2 U/ml PK.

[8] = tested on: T cells; assay: Glucose uptake (D-[3-3H] glucose); type: cell-based, human; conditions: after stimulation with anti-CD3 antibody or PMA
Protocol: Upon treatment, cells (1-2×10^7 cells) were washed and suspended in Krebs-Ringer buffer. Subsequently, cells were incubated with 1 μCi/ml D-[3-^3H] glucose for 10 min at 37° C. Afterwards, cells were washed twice with ice-cold Krebs-Ringer buffer and intracellular D-[3-^3H] glucose was detected using a scintillation counter (LS 6500 Liquid Scintillation Counter Beckman Coulter; Brea, Calif., USA).

[9] = tested on: in vitro expanded T cells; assay: Oxygen electrode, mitochondrial respiratory rate; type: cell-based; conditions: intact human T cells, soluble anti-CD3 antibody or PMA
Protocol: Mitochondrial respiratory rate was measured according to a previously described protocol (7) using computer-supported high-resolution Oroboros 1 oxygraph system (Paar, Graz, Austria). In vitro expanded T cells (5-10×10^7 cells) were placed in each electrode chamber and activated with soluble anti-CD3 antibody (10 μg/m, cross-linked with GAM, 2 μg/ml) or PMA (10 ng/ml). The experimental set-up was as previously described (8). “Mitochondrial respiratory rate” was calculated by subtracting “Background oxygen consumption rate” (recorded with a reference electrode in a presence of 5 μM oligomycin) from “Total oxygen consumption rate” (as described in (8)).

[10] = tested on: in vitro expanded human T cells; assay: Ubiquinol/ubiquinone content determination (HPLC); type: cell-based; conditions: PMA (10 ng/ml) 1 h, extracts from snap-frozen activated T cells
Protocol: At least 5×10^7 in vitro expanded human T cells were treated with plate-bound anti-CD3 antibody (30 μg/ml) or PMA (10 ng/ml) for 1 h. Cells were washed, pelleted, snap-frozen in liquid nitrogen and placed on dry ice. Ubiquinol/-on extraction was performed by addition of ice-cold 200 μl hexan: isopropanol (2:1) and subsequent centrifugation (15.000 g) for 5 min at 0° C. Next, 150 μl of the supernatant was immediately injected and separated by RP-HPLC. HPLC separation and identification conditions were based on previously published methods (10, 11). […] Identification was based on UV/VIS-DAD absorption spectra and facilitated by redox response detected with volt-amperometric detector. Quantitation was performed based on UV-VIS chromatograms at wavelengths: 275 nm (ubiquinone) and 289 nm (ubiquinol). Selected qualitative and quantitative results of UV-VIS/DAD analysis were confirmed by HPLC-MS/ESI (Agilent; Santa Clara, Calif., USA).

[11] = tested on: in vitro expanded peripheral human T cells; conditions: previous work (ref. 3); cited from earlier work
[12] = tested on: mitochondrial AK; assay: Adenylate kinase (AK) activity assay; type: biochemical; conditions: 5 μM
Protocol: AK activity was assayed as NADP reduction in ETC buffer containing 1 mM ADP, 1 mM glucose, 0.5 mM NADP, 1 U/mL HK and 0.05 U/ml glucose 6-phosphate dehydrogenase at pH 7.5 and 37° C.

For CN(C)CCCn1cc(C2=C(c3c[nH]c4ccccc34)C(=O)NC2=O)c2ccccc21 [BIM, bis-indolyl-maleimidate I], the “TCR-induced mitochondrial ROS generation” value ([1]; 20 min pre-incubation, 1 h plate-bound anti-CD3 antibody (30 μg/ml)) was “inhibitor”, the “T cell activation-induced enhancement of the ADPGK-like enzymatic activity” value ([2]; "high g" fractions, BIM pre-treatment (20 min)) was “completely abolished” and the “TCR-induced GPD2 activation” value ([3]; mitochondrial fractions of activated T cells, BIM pre-treatment) was “significantly blocked”. For the same compound, the “activation-induced changes of enzymatic activities of complexes I, II and III” value [4] was “significantly blocked”.
With N#CC(C#N)=NNc1cccc(Cl)c1 [CCCP] the “sensitivity of the enhanced HK-like enzymatic activity” value ([5]; CCCP (0.125 μM), NaCN (10 mM)) was “insensitivity”.
For O=CC[C@@H](O)[C@H](O)[C@H](O)CO [DOG, 2-deoxy-glucose], the “activation-induced ROS” value ([1]; expanded human T cells, 30 min pre-incubation with DOG/pyruvate, compared to equimolar glucose (Glc)/pyruvate) was “lower amounts” and the “activation-induced ROS” value [6] was “lower amounts”.
With [F-].[Na+] [NaF] the “reverse ENO activity” value ([7]; T cells) was “blocked”.
For [N-]=[N+]=[N-].[Na+] [NaN3], the “oxidative signal generation (T cell activation-induced mitochondrial ROS) with respiratory chain inhibitors” value [1] was “not blocked”.
In the case of CCCCCCCCCCCCCC(=O)O[C@@H]1[C@@H](C)[C@@]2(O)[C@@H](C=C(CO)C[C@]3(O)C(=O)C(C)=C[C@@H]23)[C@@H]2C(C)(C)[C@]12OC(C)=O [PMA, phorbol 12-myristate 13-acetate], the “ADPGK activity in mitochondria-enriched membrane fractions ("high g" fractions)” value [2] is reported as “Comparable up-regulation”, the “cellular uptake of radioactively labeled glucose” value [8] is reported as “rapidly rose” and the mitochondrial oxygen consumption [9] is reported as “significant inhibition”. For the same compound, the GPD2 activity ([3]; mitochondria-enriched membrane fractions of pre-activated human T cells, PMA (10 ng/ml) 1 h) was “moderately up-regulated” and the “rise in the content of ubiquinol over ubiquinone” value [10] was 57%.
With O=C(CC(=O)C(F)(F)F)c1cccs1 [TTFA] the “oxidative signal generation (T cell activation-induced mitochondrial ROS) with respiratory chain inhibitors” value [1] was “moderate inhibition”.
In the case of CN(C)C(=N)N=C(N)N [metformin], the “oxidative signal generation (T cell activation-induced mitochondrial ROS) with respiratory chain inhibitors” value [1] is listed as “inhibition” and the “generation of the oxidative signal” value [11] is listed as “blocked”.
For CO/C(=C/C(N)=O)[C@H](C)[C@H](/C=C/c1csc(-c2csc([C@@H](C)/C=C/C=C/C(C)C)n2)n1)OC [myxothiazol], the “oxidative signal generation (T cell activation-induced mitochondrial ROS) with respiratory chain inhibitors” value [1] was “not”.
With CC[C@H]1/C=C/C=C/C[C@@H](C)[C@H](O)[C@@](C)(O)C(=O)[C@@H](C)[C@H](O)[C@@H](C)C(=O)[C@@H](C)[C@H](O)[C@@H](C)/C=C/C(=O)O[C@@H]2[C@H](C)[C@H](CC1)O[C@]1(CC[C@H](C)[C@H](C[C@@H](C)O)O1)[C@H]2C [oligomycin] the “oxidative signal generation (T cell activation-induced mitochondrial ROS) with respiratory chain inhibitors” value [1] was “not blocked”.
In the case of C=C(C)[C@H]1Cc2c(ccc3c2O[C@@H]2COc4cc(OC)c(OC)cc4[C@@H]2C3=O)O1 [rotenone], the “oxidative signal generation (T cell activation-induced mitochondrial ROS) with respiratory chain inhibitors” value [1] is reported as “inhibition”.
For NaVO3, the “TCR-induced increase of reverse ENO activity” value [7] was “abolished” and the “reverse ENO activity” value [7] was “reduced the activity but did not block it”.
For “anti-CD3 antibody: Monoclonal mouse antibody (OKT3) against human CD3, agonistic, used for TCR triggering”, the “ADPGK activity in mitochondria-enriched membrane fractions ("high g" fractions)” value [2] was “enhanced”, the “cellular uptake of radioactively labeled glucose” value [8] was “rapidly rose” and the mitochondrial oxygen consumption [9] was “significant inhibition”.
For antimycin, the “oxidative signal generation (T cell activation-induced mitochondrial ROS) with respiratory chain inhibitors” value [1] was “increased”.
With diadenosine pentaphosphate [Ap5A] the “inhibition of TCR-induced HK-like activity” value ([5]; 5 μM, presence of ADP and succinate) was “up to 40%”, the “activation-induced rise in HK-like activity” value ([5]; Ap5A 5 μM) was “unaffected” and the “inhibition of mitochondrial AK” value [12] was 80-90%.
